# Several values for one entry are separate records, joined by “and”; a condition that tells them apart may be missing. Equal entries are not always repeated.
# Tested on: CEM cells
# Experiment: Non-targeted LC-MS metabolite profiling: percent [13C6]glucose labeling and relative metabolite levels
# Type: cell-based, human
# Conditions: CEM cells, 12 h following release from G1 arrest, replicates #1-#6
# Source text: To further investigate the functions of dCK and ATR at the G1/S transition in CEM cells, a non-targeted liquid chromatography mass spectrometry (LC-MS) assay was used to determine the utilization of labeled [^13C6]glucose and [^13C9,^15N3]deoxycytidine, the main substrates for de novo and salvage nucleotide biosynthesis, respectively. Of the 166 metabolites identified in CEM cells treated with VE-822 and/or dCKi, 105 metabolites found in all four treatment groups contained glucose-derived ^13C atoms. […] These metabolites included intermediates such as rUTP, rCTP and rCDP in the de novo dCTP biosynthesis (Fig. 1d). […] However, several deoxyribonucleotides, including dCTP, were below the limit of detection of the non-targeted LC-MS approach, raising the concern that the sensitivity of this assay is not sufficient to measure the contribution of the salvage pathway or the ratio of de novo and salvage biosynthesis to these pools. To address this problem, a newly developed targeted MS assay was developed (Fig. 1e and Supplementary Fig. 3). In this assay, samples containing either extracted dNTPs or hydrolyzed DNA from labeled cells are separated by LC for detection by a triple quadrupole mass spectrometer using multiple reaction monitoring (LC-MS/MS-MRM). The first (Q1) and third (Q3) quadrupoles function as mass filters, while the second (Q2) quadrupole serves as a collision chamber (Fig. 1e). For instance, to profile the biosynthetic composition of deoxycytidine (dC) derived from hydrolyzed DNA or dCTP, an intact, protonated dC ion is selected in Q1, followed by fragmentation of the glycosidic bond, which releases protonated cytosine in Q2, that is filtered in Q3 and detected to generate an ion chromatogram. The peak areas for the ion chromatograms of salvage [^13C9,^15N3]dC (red trace), de novo [^13C5]dC (black trace, from [^13C6]glucose) and unlabeled dC (gray trace) (Fig. 1e) are used to determine the relative contributions of the de novo and salvage routes both to dCTP pools and to DNA-incorporated dCTP.
# Cells were transferred into RPMI-1640 without glucose and supplemented with 10% dialyzed FBS (Gibco) containing the following labeled substrates: precursors for de novo [U-^13C6]glucose (Sigma-Aldrich, 389374) at 11 mM; precursors for purine salvage [U-^13C10,^15N5]dA (Cambridge Isotopes, CIL 3896), [^15N5]dA (Cambridge Isotopes, NLM-3895) and [^15N5]dG (Cambridge Isotopes, NLM-3899) at 5 µM or as indicated; and precursors for pyrimidine salvage: [U-^13C9,^15N3]dC (Silantes, 124603602) and [U-^13C10,^15N2]dT (Cambridge Isotopes, CNLM-3902) at 5 µM and [^15N2]orotate (Cambridge Isotopes, NLM-1048) at indicated concentrations. The cells were incubated for 12 h or as indicated before sample collection and processing. […]
# Non-targeted LC-MS metabolic assays. 1 x 10^6 cells were washed with ice-cold 150 mM ammonium acetate twice before adding 1 mL of ice-cold 80% methanol with 10 nM norvaline as an internal standard. After vigorous vortexing, samples were centrifuged at maximum speed, the aqueous layer was transferred to a glass vial and the metabolites were dried under vacuum. Metabolites were resuspended in 50 μL 70% acetonitrile (ACN) and 5 μL of this solution used for the mass spectrometer-based analysis. The analysis was performed on a Q Exactive (Thermo Scientific) in polarity-switching mode with positive voltage 4.0 kV and negative voltage 4.0 kV. The mass spectrometer was coupled to an UltiMate 3000RSLC (Thermo Scientific) UHPLC system. Mobile phase A was 5 mM ammonium acetate (NH4AcO), pH 9.9, B was acetonitrile and the separation achieved on a Luna […] NH2 100 A column (150 × 2.0 mm, Phenomenex). The flow was 200 μL/min, and the gradient ran from 15% A to 95% A in 18 min, followed by an isocratic step for 9 min and re-equilibration for 7 min. Metabolites were detected and quantified as area under the curve based on retention time and accurate mass (≤ 3 p.p.m.) using the TraceFinder 3.1 (Thermo Scientific). Relative amounts of […]
# [1] = metabolite 2-HG (C02630), listed as V
# [2] = metabolite 2-HIC (C03264), listed as V
# [3] = metabolite 3PG (C00197), listed as V
# [4] = metabolite 5-Oxoproline (C01879), listed as V
# [5] = metabolite A (C00212), listed as V
# [6] = metabolite ADP (C00008), listed as V
# [7] = metabolite AMP (C00020), listed as V
# [8] = metabolite ATP (C00002), listed as V
# [9] = metabolite Ac-carnitine (C02571), listed as V
# [10] = metabolite Ac-choline (C01996), listed as V
# [11] = metabolite Aconitate (C00417), listed as V
# [12] = metabolite Adenine (C00034), listed as V
# [13] = metabolite Ala (C00041), listed as V
# [14] = metabolite Allantoin (C02350), listed as V
# [15] = metabolite Arg (C00062), listed as V
# [16] = metabolite Arg-Succ (C03406), listed as V
compound,measurement,setting,value
CNCc1ccc(-c2cc(-c3nc(-c4ccc(S(=O)(=O)C(C)C)cc4)cnc3N)on2)cc1 [VE-822],"Relative level, Sarc (C00213)",listed as V,1.3 (2×) and 1.2 and 0.569 and 0.751 and 0.6
same,"Relative level, Ser (C00065)",listed as V,1.4 and 1.5 (2×) and 0.9 and 1.0 and 0.949
same,"Relative level, Shikimate (C00493)",listed as V,1.3 and 1.2 and 1.5 and 1.1 and 0.8 (2×)
same,"Relative level, Succ (C00042)",listed as V,1.6 (2×) and 1.3 and 1.1 and 0.5 (2×)
same,"Relative level, T (C00214)",listed as V,1.1 (2×) and 1.3 (2×) and 1.2 and 1.4
same,"Relative level, Thr (C00188)",listed as V,1.5 and 1.6 (2×) and 1.0 and 0.949 and 0.9
same,"Relative level, Thymine (C00178)",listed as V,1.4 and 1.5 (2×) and 1.0 (2×) and 1.2
same,"Relative level, Trigonelline (C01004)",listed as V,1.3 (3×) and 1.5 and 0.8 and 1.2
same,"Relative level, Trp (C00078)",listed as V,1.4 and 1.5 (2×) and 0.9 (2×) and 1.0
same,"Relative level, Tyr (C00082)",listed as V,1.4 and 1.6 (2×) and 0.9 (3×)
same,"Relative level, Tyramine (C00483)",listed as V,1.0 and 1.1 and 1.7 and 0.8 (2×) and 0.7
same,"Relative level, UDP (C00015)",listed as V,2.4 and 1.3 and 1.6 and 1.1 and 0.7 and 0.6
same,"Relative level, UDP-Glc (C00029)",listed as V,2.4 and 2.0 and 2.8 and 1.5 and 1.4 and 1.7
same,"Relative level, UDP-GlcNAc (C00043)",listed as V,1.2 and 1.1 and 1.4 and 0.747 and 0.8 and 0.9
same,"Relative level, UMP (C00105)",listed as V,2.6 and 2.3 and 2.5 and 2.0 and 0.7 (2×)
same,"Relative level, UTP (C00075)",listed as V,1.2 and 0.571 and 0.7 and 0.75 and 0.4 and 0.355
same,"Relative level, Uracil (C00106)",listed as V,1.2 (2×) and 2.0 and 2.6 and 1.1 and 0.8
same,"Relative level, Uric Acid (C00366)",listed as V,0.5 and 0.9 and 1.4 and 0.242 and 0.282 and 0.253
same,"Relative level, Urocanate (C00785)",listed as V,0.542 and 1.3 and 1.4 and 0.452 and 0.8 and 0.7
same,"Relative level, Val (C00183)",listed as V,1.1 and 1.3 (2×) and 1.5 and 0.9 (2×)
same,"Relative level, Vit-C (C00072)",listed as V,5.1 and 1.4 (2×) and 2.3 and 0.5 and 0.2
same,"Relative level, Xanthine (C00385)",listed as V,0.9 and 1.7 and 2.5 and 2.4 and 0.843 and 0.6
same,"Glucose labeling, 2-HG",[1],9.00% and 8.24% and 8.56% and 6.59% and 3.26% and 5.24%
same,"Relative level, 2-HG",[1],1.5 and 1.0 and 1.3 and 0.9 and 0.545 and 0.5
same,"Glucose labeling, 2-HIC",[2],-2.22e-14% and 0.00% (5×)
same,"Relative level, 2-HIC",[2],1.2 (2×) and 1.5 (2×) and 0.8 and 0.9
same,"Glucose labeling, 2-KIC",metabolite 2-KIC (C00233),0.00%
same,"Relative level, 2-KIC","metabolite 2-KIC (C00233), listed as V",1.1 and 1.2 and 1.3 and 0.9 (2×) and 0.8
same,"Glucose labeling, 2-Oxoadipate",metabolite 2-Oxoadipate (C00322),0.00%
same,"Relative level, 2-Oxoadipate","metabolite 2-Oxoadipate (C00322), listed as V",1.3 and 1.0 (2×) and 1.4 and 1.1 and 0.759
same,"Glucose labeling, 2-Oxosuccinamate",metabolite 2-Oxosuccinamate (C02362),0.0737%
same,"Relative level, 2-Oxosuccinamate","metabolite 2-Oxosuccinamate (C02362), listed as V",0.8 and 0.9 and 1.6 and 2.4 and 0.5 and 0.438
same,"Glucose labeling, 3PG",[3],98.64% and 92.25% and 93.08% and 80.82% and 100.00% (2×)
same,"Relative level, 3PG",[3],1.3 and 0.262 and 0.5 (2×) and 0.0899 and 0.0949
same,"Glucose labeling, 4-OH-PheLac",metabolite 4-OH-PheLac (C03672),0.00%
same,"Relative level, 4-OH-PheLac","metabolite 4-OH-PheLac (C03672), listed as V",1.0 and 1.1 and 1.3 and 0.7 and 0.5 and 0.6
same,"Glucose labeling, 5-Oxoproline",[4],1.06% and 0.96% and 1.16% and 0.74% (2×) and 0.98%
same,"Relative level, 5-Oxoproline",[4],1.0 (2×) and 1.1 (2×) and 0.9 and 0.7
same,"Glucose labeling, 5M-adenosine",metabolite 5M-adenosine (C00170),0.00%
same,"Relative level, 5M-adenosine","metabolite 5M-adenosine (C00170), listed as V",1.7 and 1.9 (2×) and 1.3 (2×) and 1.4
same,"Glucose labeling, A",[5],0.0217% and 0.39% and 0.36% and 0.0233% and 0.0286% and 0.01%
same,"Relative level, A",[5],1.7 and 1.1 and 1.2 and 4.1 and 1.0 and 1.8
same,"Glucose labeling, ADP",[6],63.63% and 60.29% and 63.02% and 59.23% and 57.33% and 59.16%
same,"Relative level, ADP",[6],2.2 and 1.0 and 1.4 and 1.2 and 0.6 (2×)
same,"Glucose labeling, AMP",[7],58.98% and 57.42% and 62.07% and 26.04% and 58.67% and 50.37%
same,"Relative level, AMP",[7],2.8 and 1.7 and 2.2 and 3.0 and 0.8 and 0.7
same,"Glucose labeling, ATP",[8],65.50% and 64.37% and 65.03% and 64.82% and 61.07% and 61.72%
same,"Relative level, ATP",[8],1.5 and 0.6 and 0.849 and 0.9 and 0.466 and 0.5
same,"Glucose labeling, Ac-carnitine",[9],29.64% and 30.01% and 28.25% and 21.49% and 24.07% and 21.63%
same,"Relative level, Ac-carnitine",[9],1.1 (2×) and 1.2 and 0.7 (2×) and 0.8
same,"Glucose labeling, Ac-choline",[10],0.00429% and 0.00459% and 0.00523% and 0.00396% and 0.00509% and 0.00552%
same,"Relative level, Ac-choline",[10],0.746 and 0.8 (3×) and 0.76 and 0.9
same,"Glucose labeling, Aconitate",[11],33.62% and 26.91% and 31.71% and 21.17% and 28.64% and 25.94%
same,"Relative level, Aconitate",[11],1.0 and 0.433 and 0.659 and 0.53 and 0.3 and 0.355
same,"Glucose labeling, Adenine",[12],1.88e-5% and 1.21e-5% and 0.00361% and 1.25e-5% and 1.11e-5% and 0.0013%
same,"Relative level, Adenine",[12],1.8 and 3.0 and 3.1 and 41.9 and 2.1 and 1.5
same,"Glucose labeling, Ala",[13],57.46% and 55.60% and 53.77% and 47.90% and 47.23% and 52.00%
same,"Relative level, Ala",[13],1.3 and 1.5 (2×) and 0.9 (2×) and 1.0
same,"Glucose labeling, Allantoin",[14],0.00% (5×) and -2.22e-14%
same,"Relative level, Allantoin",[14],1.3 (2×) and 1.7 and 1.1 and 0.7 and 1.0
same,"Glucose labeling, Arg",[15],0.00452% and 0.00428% and 0.00453% and 0.00405% and 0.00437% and 0.00476%
same,"Relative level, Arg",[15],1.5 and 1.7 and 1.6 and 0.9 (2×) and 1.1
same,"Glucose labeling, Arg-Succ",[16],10.44% and 8.30% and 5.56% and 3.28% and 1.95% and 6.31%
same,"Relative level, Arg-Succ",[16],1.4 and 1.3 and 1.5 and 0.9 and 0.6 and 0.5
same,"Glucose labeling, Asn","metabolite Asn (C00152), listed as V",5.14e-5% and 2.85e-6% and 2.32e-6% and 0.000702% and 2.84e-6% and 2.39e-6%

# Source: paper PMC5556071, “ATR inhibition facilitates targeting of leukemia dependence on convergent nucleotide biosynthetic pathways” (Nature Communications, 2017)
